Series [1] concerns mechanical allodynia in spinal L5/L6 nerve–ligated neuropathic rats. Put plainly: Mechanical allodynia (von Frey paw withdrawal threshold) after intrathecal injection in spinal nerve-ligated neuropathic rats. Type of series: in vivo, rat. As to conditions: for Blockade of aconitine (100 ng) anti-allodynia / Blockade of benzolyaconine (10 μg) anti-allodynia: intrathecal pretreatment: antiserum 1:10 or nor-BNI 100 μg 0.5 h earlier, minocycline 100 μg 4 h earlier; for Own effect on withdrawal responses in contralateral or ipsilateral paws: compared with saline control. How it is done: (§1) An 18-cm polyethylene catheter (PE-10: 0.28-mm inner diameter and 0.61-mm outer diameter, Clay Adams, Parsippany, NJ, USA) with a volume of 13 μL was inserted into the lumbar level of the spinal cord as described elsewhere under inhalational isoflurane anesthesia (4% for induction and 1% for maintenance) run by an anesthesia meter (Ugo Basile Gas Anesthesia System, Comerio, Italy). Two days after recovery from anesthesia, the placement of the catheter in the spinal cord was verified by administration of 4% lidocaine (10 μL, followed by 15 μL of saline for flushing). Rats that had no motor impairment after placement of the intrathecal catheter were considered for the study, and rats that developed immediate bilateral paralysis of the hindlimbs after intrathecal administration of lidocaine were selected for the study. For intrathecal administration of the control and test articles, 10 μL of each drug was injected with a 50-μL microinjector (Shanghai Anting Micro-Injector Factory, Shanghai, China) and was flushed with 15 μL of normal saline solution.
(§2) To induce hypersensitivity to neuropathic pain, the rats were subjected to spinal nerve ligation as previously described [Kim and Chung (1992)] and [Zhang et al. (2013)]. Unilateral ligation of the L5 and L6 spinal nerves was performed under inhalational isoflurane anesthesia (4% for induction and 1% for maintenance) run by an anesthesia meter (Ugo Basile Gas Anesthesia System). The left L5 and L6 spinal nerves were isolated and tightly ligated with 6-0 silk thread. After ligation, the wound was sutured and the rats were returned to their home cages for recovery. After spinal nerve ligation, only those rats with marked unilateral allodynia to mechanical stimulation (i.e., a hindpaw withdrawal threshold of less than 8 g on the operated side) and with no major impairment were included in the study. Drug testing started 2–4 weeks after spinal nerve ligation.
To evaluate mechanical allodynia, the animals were acclimatized for at least 30 min to the test environment, namely, a plexiglass box on a metal grid (0.5 cm × 0.5 cm). The hindpaw withdrawal threshold was measured with a 2450 CE Electronic von Frey hair (IITC Life Science Inc, Woodland Hill, CA, USA). An electronic handheld transducer with a No. 15 monofilament was applied perpendicularly to the medial surface of the hindpaws with increasing force (ranging from 0.1 to 90 g) until the rat suddenly withdrew or licked the hindpaw. The lowest force that produced a withdrawal response was considered to be the threshold, which was the mean of three repeated measurements made in a 5-min interval.
(§3) The percentage of maximal possible effect (% MPE) was calculated using the following formula: (postdrug threshold in ipsilateral hindlimb – baseline threshold in ipsilateral hindlimb)/(baseline threshold in contralateral hindlimb – baseline threshold in ipsilateral hindlimb) × 100 ([Bowersox et al., 1996]). A % MPE value near 100 indicates normal mechanical thresholds (i.e., near contralateral thresholds), and a value near 0 indicates allodynia. For the dose-response curve analysis, the parameters (i.e., minimum effect; Emax, median effective concentration or dose, or median toxic or lethal dose [EC50, ED50, TD50, or LD50], and Hill coefficient [n]) were calculated from the individual dose-response curves using the Prism program (version 5.01, GraphPad Software, San Diego, CA, USA). To determine the parameters of the dose-response curves, the values of response (Y) were fitted by non-linear least-squares curves to the relation Y = a + bx, where x = [D]^n/(ED50^n + [D]^n), [C]^n/(EC50^n + [C]^n), [D]^n/(TD50^n + [D]^n) or [D]^n/(LD50^n + [D]^n), to give each value of ED50, EC50, TD50, or LD50 and b (Emax) yielding a minimum residual sum of squares of deviations from the theoretical curve ([Wang and Pang, 1993]).

Series [2] has as its system heat hyperalgesia in spinal L5/L6 nerve–ligated neuropathic rats. The series is described as follows: Heat hyperalgesia (radiant heat paw withdrawal latency) after intrathecal injection in spinal nerve-ligated neuropathic rats. It counts as in vivo, rat. How it is done:
as §1, §2
To assess heat hyperalgesia, the rats were put in a plexiglass box on an elevated glass surface. After an adaptation period of at least 30 min, radiant heat was applied to the plantar medial surface of each hindpaw. The hindpaw withdrawal latency was measured with a Model 390G Plantar Test Analgesia Meter (IITC Life Science Inc.). To prevent tissue damage, the latency cutoff was set at 30 s. The paw withdrawal latency was defined as the time from the onset of radiant heat application to the withdrawal of the hindpaw. Both hindpaws were tested independently three times with a 5-min interval between trials. The result for each test was calculated as the mean of the three repeated measurements.
as §3, with “To determine the parameters of the dose-response curves, the values of response (Y) were fitted by non-linear least-squares curves to the relation Y = a + bx, where x = [D]^n/(ED50^n + [D]^n), [C]^n/(EC50^n + [C]^n), [D]^n/(TD50^n + [D]^n) or [D]^n/(LD50^n + [D]^n), to give each value of ED50, EC50, TD50, or LD50 and b (Emax) yielding a minimum residual sum of squares of deviations from the theoretical curve ([Wang and Pang, 1993]).” left out

Series [3] has as its system prodynorphin gene expression in primary cultures of spinal microglia. The series is described as follows: Prodynorphin gene expression in cultured primary spinal microglia (real-time quantitative PCR). It counts as cell-based, rat. Here is the method:
Glial cells were isolated from the 1-day-old neonatal rats. The isolated spinal cords were minced and then incubated with trypsin. Dissociated cells were suspended in 75-cm^2 tissue culture flasks (1 × 10^7 cells/flask) precoated with poly-L-lysine and maintained in a 5% CO2 incubator at 37°C. After culture for 10 days, the microglial cells were prepared as floating cell suspensions by shaking the flask at 260 rpm for 2 h. The aliquots were transferred to plates, and the unattached cells were removed by washing with serum-free Dulbecco’s modified Eagle’s medium.
RNA extraction, reverse transcription, and real-time quantitative PCR were performed as previously described ([Chen et al., 2012]). The spinal lumbar enlargements of rats were collected and mechanically homogenized with an electronic microhomogenizer at 4,000 rpm for 10 s in TRIzol on ice. Total RNA from the spinal lumbar enlargements were isolated using TRIzol reagent (Invitrogen, Grand Island, NY, USA). A 1-μg sample of total RNA was reverse-transcribed with a ReverTra Ace qPCR RT-Kit (Toyobo, Japan). Real-time quantitative PCR was carried out with the Mastercycler ep realplex (Eppendorf, Germany) using the RealmasterMix (SYBR Green I) (Toyobo). The fold change was calculated with the 2^-ΔΔCt method after normalization to the gene of gapdh. […]
The percentage of maximal possible effect (% MPE) was calculated using the following formula: (postdrug threshold in ipsilateral hindlimb – baseline threshold in ipsilateral hindlimb)/(baseline threshold in contralateral hindlimb – baseline threshold in ipsilateral hindlimb) × 100 ([Bowersox et al., 1996]). […] For the dose-response curve analysis, the parameters (i.e., minimum effect; Emax, median effective concentration or dose, or median toxic or lethal dose [EC50, ED50, TD50, or LD50], and Hill coefficient [n]) were calculated from the individual dose-response curves using the Prism program (version 5.01, GraphPad Software, San Diego, CA, USA). […]
Primary cultures of microglial cells taken from the spinal cords of the neonatal rats were treated with a variety of concentrations of aconitine (1 × 10^-8, 3 × 10^-8, 1 × 10^-7, 3 × 10^-7, and 1 × 10^-6 M), benzolyaconine (3 × 10^-7, 1 × 10^-6, 3 × 10^-6, 1 × 10^-5, 3 × 10^-5, and 1 × 10^-4 M) and aconine (1 × 10^-4, 3 × 10^-4, 1 × 10^-3, 3 × 10^-3, and 1 × 10^-2 M) for 2 h. As the bulleyaconitine A-increased dynorphin A level measured by the enzyme-linked immunosorbent assay was in parallel with the prodynorphin gene expression in spinal microglia from neonatal and adult rats ([Li et al., 2016]), the expression of the cellular prodynorphin gene encoding dynorphin A was only measured in this study using real-time quantitative PCR. […]

Series [4] relates to spinal nerve–ligated neuropathic rats. The series is described as follows: Acute spinal neurotoxicity (flaccid paralysis and death) after intrathecal injection. It counts as in vivo, rat. As to conditions: for LD50 (mortality) / TD50 (for flaccid paralysis): intrathecal bolus, observed 24 h; for Normalized TD50: average of TD50 (paralysis) and LD50. Here is the method: as §1
Survival and abnormal motor-blockade behaviors, including asthma, abdominal breathing, locomotion difficulty, and paralysis, were continuously monitored for 24 h after the treatment, with special attention given during the first 4 h. Paralysis was defined as an inability to negotiate a 60-degree inclined plane ([Durant and Yaksh, 1986]). Death was defined as respiratory arrest over a period of 5 min. The paralysis and mortality rates and their latencies were quantitatively recorded and tabulated.
as §3

Series [5] deals with mice. As to conditions: intravenous injection in mice; ref Mizugaki and Ito, 2005; cited from earlier work.
Series [6] deals with pain hypersensitivity in spinal nerve-ligated neuropathic rats. The series is described as follows: Anti-hypersensitivity, normalized (anti-allodynia and anti-hyperalgesia ED50 averaged). Type of series: in vivo, rat. Here is the method: as §3
Table 1 summarizes the ED50 values in mole base for aconitine, benzolyaconine, and aconine to block pain hypersensitivity. Because anti-allodynia and anti-hyperalgesia were closely correlated, their ED50 values were averaged to obtain a normalized ED50 for anti-hypersensitivity. The ED50 ratios for aconitine and benzolyaconine to block mechanical allodynia and heat hyperalgesia were 1:92 and 1:110, with a normalized ED50 ratio of 1:102.

The test system of series [7] is dynorphin A expression in spinal microglia. As to conditions: 2016, cited from earlier work; for Effect on dynorphin A level / expression: spinal cord and cultured primary spinal microglia, ref Li et al.
Series [8] has as its system neuropathic rats. On the set-up: method as in Li et al., 2016. As to conditions: ref Li et al., 2016; cited from earlier work.

Entries after “also recorded” stand apart in the source; their conditions may differ.

Turning to `CCN1C[C@]2(COC)[C@H](O)C[C@H](OC)[C@]34C1[C@H]([C@H](OC)[C@H]23)[C@]1(O)[C@H]2[C@@H](O)[C@](O)(C[C@H]24)[C@@H](OC)[C@@H]1O` [Aconine, aconine], the “Effect on mechanical allodynia in ipsilateral paws” value in series [1] (intrathecal, up to 300 μg) is given as “did not produce significant anti-allodynia or anti-hyperalgesia; also recorded: did not alter mechanical allodynia or thermal hyperalgesia”. Moreover, in series [2] (up to 300 μg), the “Effect on heat hyperalgesia in ipsilateral paws” value is listed as “did not produce significant anti-allodynia or anti-hyperalgesia; also recorded: did not alter mechanical allodynia or thermal hyperalgesia”. Also, the “Effect on prodynorphin gene (dynorphin A) expression” value in series [3] (up to 10 mM, 2 h) was “did not significantly affect prodynorphin gene expression; also recorded: did not significantly stimulate the dynorphin A expression”. For the same molecule, in series [4], the “LD50 (mortality)” value was found to be 1.7 µmol and the “TD50 (for flaccid paralysis)” value is 1.5 µmol. Besides, the “Normalized TD50” value in series [4] (intrathecal) was determined as 1.6 µmol. For the same molecule, the LD50 in series [5] is on record as 120 mg/kg.

`CCN1CC2(COC)C(O)CC(OC)C34C5CC6(O)C(OC)C(O)C(O)(C5C6OC(=O)c5ccccc5)C(C(OC)C23)C14` (centres unmarked) [Benzolyaconine, benzoylaconine]: the “Anti-allodynic effect in ipsilateral paws” value in series [1] (intrathecal 10 μg) was “marked and reversible anti-allodynia”. For the same molecule, the “Emax, blockade of mechanical allodynia” value in series [1] (intrathecal, 1 h after injection) was found to be 56.4 % MPE. Also, the “ED50, anti-allodynia” value in series [1] (intrathecal, % MPE at 1 h after injection) is on record as 3.6 nmol. The “Effect on withdrawal responses in the contralateral paws” value in series [1] (intrathecal, mechanical and thermal stimuli) is given as “did not significantly affect the paw withdrawal responses in the contralateral paws”. Further, in series [2] (1 h after injection), the “Emax, blockade of thermal hyperalgesia” value was 100 % MPE. The “ED50, anti-hyperalgesia” value in series [2] (% MPE at 1 h after injection) came to 3.5 nmol. Besides, in series [6] (intrathecal, average of allodynia and hyperalgesia ED50), the “Normalized ED50 for anti-hypersensitivity” value is recorded as 3.6 nmol. For the same molecule, the “Normalized ED50 relative to that of aconitine” value in series [6] (times greater than aconitine) came to 102 times. The EC50 in series [3] (Rattus norvegicus, primary spinal microglia of neonatal rats, 2 h incubation, read-out: EC50, stimulation of prodynorphin gene (dynorphin A) expression) was determined as 3 µM. In series [4] (intrathecal), the “Duration of toxic motor-blockade behavior” value was 5 to 10 min, the “Latency of toxic motor-blockade behavior” value was in the range of 2 to 3 min and the “Normalized TD50” value amounted to 0.2 µmol. Also, in series [4], the “LD50 (mortality)” value was 0.2 µmol and the “TD50 (for flaccid paralysis)” value was found to be 0.2 µmol. Also, the LD50 in series [5] is given as 23 mg/kg.

As for `C=C1C2CCC3(C4C[C@H]5C6(CCC[C@@]5(C)CN(CC)C46)[C@H]3[C@H]2O)[C@@H]1O` [Bullatine A], the “Effect on dynorphin A expression” value in series [7] (microglia in the spinal cord and cultured primary microglia, ref Huang et al.) is recorded as “specifically stimulated dynorphin A expression”.

Turning to `CCCCN1CCCCC1C(=O)Nc1c(C)cccc1C` (centres unmarked) [bupivacaine], in series [7], the “Effect on dynorphin A level / expression” value is on record as “did not stimulate dynorphin A expression”.

For `CCN(CC)CC(=O)Nc1c(C)cccc1C` [lidocaine], in series [7], the “Effect on dynorphin A level / expression” value is recorded as “did not stimulate dynorphin A expression”.

Take `CN(C)c1ccc(O)c2c1C[C@H]1C[C@H]3[C@H](N(C)C)C(O)=C(C(N)=O)C(=O)[C@@]3(O)C(O)=C1C2=O` [minocycline, reference compound]: in series [1], the “Blockade of aconitine (100 ng) anti-allodynia” value is “completely prevented” and the “Blockade of benzolyaconine (10 μg) anti-allodynia” value is on record as “completely alleviated benzolyaconine anti-allodynia”. In addition, the “Own effect on withdrawal responses in contralateral or ipsilateral paws” value in series [1] (intrathecal) was “did not affect withdrawal thresholds”. Also, in series [8], the “Effect on antinociceptive effects of bulleyaconitine A” value is listed as “completely abolished the antinociceptive effects of bulleyaconitine A”.

For `Oc1ccc2c3c1O[C@H]1c4[nH]c5c(c4C[C@@]4(O)[C@@H](C2)N(CC2CC2)CC[C@]314)C[C@@]1(O)[C@H]2Cc3ccc(O)c4c3[C@@]1(CCN2CC1CC1)[C@H]5O4` [nor-BNI, Nor-binaltorphimine, reference compound], in series [1], the “Blockade of aconitine (100 ng) anti-allodynia” value is given as “completely blocked aconitine-induced anti-allodynia” and the “Blockade of benzolyaconine (10 μg) anti-allodynia” value was “completely alleviated benzolyaconine anti-allodynia”. Moreover, in series [1] (intrathecal), the “Own effect on withdrawal responses in contralateral or ipsilateral paws” value was “did not affect the withdrawal responses”.

For orientation: LD50 means the dose at which mortality reaches 50%. As a reminder, the EC50 is the concentration at which the effect is half-maximal.

The record behind these values is paper PMC5051147, “Ester Hydrolysis Differentially Reduces Aconitine-Induced Anti-hypersensitivity and Acute Neurotoxicity: Involvement of Spinal Microglial Dynorphin Expression and Implications for Aconitum Processing” (Frontiers in Pharmacology, 2016).
